Assay results from patent US20040097534A1, “Composition for the protection and regeneration of nerve cells containing berberine derivatives” (EUGENBIO INC., priority 2001, published 2004).
Entries after “also recorded” stand apart in the source; their conditions may differ.

Legend:
bcl-2 mRNA = assay: Expression of bcl-2 mRNA in white rat cerebra (RT-PCR); type: in vivo; conditions: berberine 5 mg/kg intraperitoneally
Description: All groups were intraperitoneally injected. RT-PCR was performed to examine the expression of bcl-2 mRNA, which is an anti-apoptosis gene expressed in cerebral tissues. GAPDH mRNA was used as a control group. The expression of GAPDH mRNA was also performed by RT-PCR method.
1 ml of TRI Reagent (Molecular Research Center Inc., USA) was added to 100 mg of cerebral tissue sections, and the mixture was homogenized and then left at room temperature for 10 minutes. 0.1 ml of BCP (Sigma, USA) was added to 1 ml of the homogenized mixture, mixed with each other for 1 minute, and then left at 4° C. for 10 minutes. After the mixture was centrifuged at 12,000 rpm, 4° C. for 15 minutes, the supernatant was added to cold isopropanol and left at a temperature of −20° C. for 16 hours. Thereafter, the supernatant was centrifuged at 12,000 rpm, 4 for 15 minutes to obtain RNA precipitates. The obtained RNA precipitates were washed with DEPC diethylpyrocarbonate)-treated cold ethanol (75%), and dried using SpeedVac. The dried RNA was dissolved in DEPC-treated distilled water. After the concentration and purity of RNA were spectrophotometrically measured at 260 nm, the isolated RNA was stored at a temperature of −20° C. before use. […]
10 μl of amplified PCR product was electrophoresed in a 1.5% agarose gel, and the density was measured using a gel documentation system (Bio-Rad Lab, USA).

HiB5 cells = assay: Induction of differentiation of HiB5 cells into nerve cells (neurite count, confocal); type: cell-based, white rat; conditions: HiB5, berberine, 2 days
Description: (§1) Thereafter, the culture was treated with berberine and further cultured for 2 days. The cultured cells were immunostained with nerve cell-specific labeled molecule, and then the number of cells having neurites longer than cell bodies was counted under a confocal microscope. A positive control was treated with bFGF under the same condition as described above to induce the differentiation into nerve cells. In addition, the neuroregenerative effect was examined after berberine together with bFGF was treated. The differentiation degree was measured by double-staining neurites with nerve cell-specific labeled molecule (anti-neurofilament antibody) and FITC-labeled secondary antibody (green), followed by staining cell nuclei with propidium iodide (red).

SH-SY5Y cells = assay: Neurite regeneration in SH-SY5Y cells; type: cell-based, human
Description: as §1, with “(red). In order to examine the effect of berberine on neurite regeneration, SH-SY5Y cells were used as differentiated nerve cell lines. Retinoic acid inducing neurite growth was used as a positive control.” for “(red).”

COc1ccc2cc3[n+](cc2c1OC)CCc1cc2c(cc1-3)OCO2 [Berberine, 7,8,13,13a-tetradihydro-9,10-dimethoxy-2,3-(methylenedioxy) berbinium]
expression of bcl-2 mRNA in cerebral tissues (bcl-2 mRNA): High bcl-2 mRNA Expression
expression of bcl-2 mRNA in cerebral tissues (bcl-2 mRNA; listed as berberine): higher than in the control group; also recorded: increased
number of cells differentiated into nerve cells, increase (HiB5 cells): increased two times
Number of differentiated cells (HiB5 cells; N2 = 3.07): 7.87
Average (%) of differentiated cells (HiB5 cells; N2 = 14.46): 31.57%
total average cell numbers (HiB5 cells; N2 = 22.38): 26.61
length of neurites (SH-SY5Y cells; berberine): lengthened the length of neurites
total number of nerve cells, increase (SH-SY5Y cells; berberine): increased two times; also recorded: doubled
Average (%) of differentiated cells (SH-SY5Y cells; berberine 0.25 μg/ml): 63.34%
Number of differentiated cells (SH-SY5Y cells; berberine 0.25 μg/ml): 26.51
total average cell numbers (SH-SY5Y cells; berberine 0.25 μg/ml): 39.75
Average (%) of differentiated cells (SH-SY5Y cells; berberine 1.5 μg/ml): 71.04%
Number of differentiated cells (SH-SY5Y cells; berberine 1.5 μg/ml): 27.89
total average cell numbers (SH-SY5Y cells; berberine 1.5 μg/ml): 38.80
Average (%) of differentiated cells (SH-SY5Y cells; berberine 3 μg/ml): 73.95%
Number of differentiated cells (SH-SY5Y cells; berberine 3 μg/ml): 28.64
total average cell numbers (SH-SY5Y cells; berberine 3 μg/ml): 38.60
